Results published in ChEMBL document CHEMBL1268929, “Design, synthesis, and evaluation of an α-tocopherol analogue as a mitochondrial antioxidant” (2010).
Activity calls are given as the source filed them. The rule behind the calls is not given here.

How the values were obtained:
CCRF-CEM = assay: Antioxidant activity against diethyl maleate-induced intracellular ROS accumulation in human CEM cells at 5 uM pretreated for 1 hr before diethyl maleate challenge measured after 30 mins by flow cytometry; format: functional
Bos taurus = species on record: Bos taurus; assay: Antioxidant activity against AAPH-induced lipid peroxidation in bovine heart mitochondrial membrane at 50 uM by spectrofluorimetric analysis; format: functional; details: Mitochondria

| Compound | Activity (CCRF-CEM) | Activity (Bos taurus) |
| --- | --- | --- |
| Cc1nc2c(c(CC[C@](C)(O)CCC[C@H](C)CCC[C@H](C)CCCC(C)C)c1O)CCN2C | 2% | Active |
| Cc1nc2c(c(C)c1O)CCN2C | 75% |  |
| Cc1c(C)c2c(c(C)c1O)CC[C@@](C)(CCC[C@H](C)CCC[C@H](C)CCCC(C)C)O2 [ALPHA-TOCOPHEROL] | 65% |  |
